Experimental data published in patent US9675616B2, “Arylaminoalcohol-substituted 2,3-dihydroimidazo[1,2-C]quinolines” (BAYER INTELLECTUAL PROPERTY GMBH, priority 2010, dated 2017).

Assays:
[1] = target: PI3Kα (complex of human p110α and human p85α) (Homo sapiens (Human), UniProt P42336); assay: PI3Kα kinase assay (HTRF-based PI3K inhibition assay); details: 10 μM ATP, 10 μM PIP2; average value; read-out: average IC50 in the PI3K alpha biochemical assay
Source text: Determination of % Inhibition and IC50 Values of Compounds in PI3Kα Kinase Assay
PI3Kα inhibitory activity of compounds of the present invention was quantified employing the HTRF-based PI3K inhibition assay as described below.
(§1) Chemicals and Assay Materials
(§2) As reagents for the kinase reaction itself and the quantification of the reaction product, the PI3-Kinase HTRF Assay kit from Millipore (#33-017) was used. With this kit the phosphatidylinositol 3,4,5-trisphosphate (PIP3) generated in the kinase reaction is detected by displacement of a biotinylated ligand from an energy transfer complex consisting of a Europium-labeled anti-GST monoclonal antibody, a GST-tagged PH domain, biotinylated PIP3 and Streptavidin-Allophycocyanin (APC).
The amount of PI3Kα was chosen to have the enzyme reaction in the linear range and depended on the activity of the individual lot, typical concentrations in assay were in the range of 90 ng/mL. […]
The reaction was stopped by the addition of 1 μL of an stop solution (containing the biotinylated PIP3 used as a tracer), then 1 μL detection mix (containing a Europium-labeled anti-GST monoclonal antibody, a GST-tagged PH domain, and Streptavidin-Allophycocyanin) was added and resulting mixture was incubated 3 h at 22° C. to allow the formation of complexes between the detection reagents and either the PIP3 generated in the kinase reaction, or the biotinylated PIP3 added with the stop solution. Subsequently, the amount of energy transfer complex consisting of a Europium-labeled anti-GST monoclonal antibody, a GST-tagged PH domain, biotinylated PIP3 and Streptavidin-Allophycocyanin (APC) was evaluated by measurement of the resonance energy transfer from the Europium-labeled anti-GST monoclonal antibody to the Streptavidin-Allophycocyanin. Therefore, the fluorescence emissions at 620 nm and 665 nm after excitation at 350 nm were measured using a TR-FRET reader, e.g., a Pherastar (BMG Labtechnologies, Offenburg, Germany) or a Viewlux (Perkin-Elmer). […]

[2] = target: PI3Kβ (complex of human p110β and human p85α) (Homo sapiens (Human), UniProt P42338); assay: PI3Kβ kinase assay (HTRF based PI3K inhibition assay); type: biochemical; details: for IC50: 10 μM ATP, 10 μM PIP2, average value, read-out: average IC50 in the PI3K beta biochemical assay; for PI3K beta average IC50/PI3K alpha average IC50: ratio of beta IC50 to alpha IC50 (isoform balance)
Source text: Determination of % Inhibition and IC50 Values of Compounds in PI3Kβ Kinase Assay
PI3Kβ inhibitory activity of compounds of the present invention was quantified employing the HTRF based PI3K inhibition assay as described below.
as §1, §2
For the assay 50 nL of a 80-fold concentrated solution of the test compound in DMSO was pipetted into a black low volume 384-well microtiter plate (Greiner Bio-One, Frickenhausen, Germany), 3 μl of a solution of PI3Kβ and phosphatidylinositol-4,5-bisphosphate (PIP2, 13.8 μM=>final conc. in 4 μl reaction volume=10 μM) in 1× reaction buffer (exact composition not disclosed by the vendor) were added and the mixture was incubated for 15 min at 22° C. to allow pre-binding of the test compounds to the enzyme before the start of the kinase reaction. The amount of PI3Kβ was chosen to have the enzyme reaction in the linear range and depended on the activity of the individual lot, typical concentrations in assay were in the range of 120 ng/mL. Then the kinase reaction was started by the addition of 1 μL of a solution of adenosine triphosphate (ATP, 40 μM=>final conc. in the 4 μl assay volume is 10 μM) in reaction buffer and the resulting mixture was incubated for a reaction time of 20 min at 22° C.
The reaction was stopped by the addition of 1 μL of an stop solution (containing the biotinylated PIP3 used as a tracer). Then 1 μL detection mix (containing a Europium-labeled anti-GST monoclonal antibody, a GST-tagged PH domain, and Streptavidin-Allophycocyanin) was added and resulting mixture was incubated for 3 h at 22° C. to allow the formation of complexes between the detection reagents and either the PIP3 generated in the kinase reaction, or the biotinylated PIP3 added with the stop solution. Subsequently the amount of energy transfer complex consisting of a Europium-labeled anti-GST monoclonal antibody, a GST-tagged PH domain, biotinylated PIP3 and Streptavidin-Allophycocyanin (APC) was evaluated by measurement of the resonance energy transfer from the Europium-labeled anti-GST monoclonal antibody to the Streptavidin-Allophycocyanin. Therefore, the fluorescence emissions at 620 nm and 665 nm after excitation at 350 nm were measured using a TR-FRET reader, e.g., a Pherastar (BMG Labtechnologies, Offenburg, Germany) or a Viewlux (Perkin-Elmer). The ratio of the emissions at 665 nm and at […] were taken as the measure for the amount of biotinylated PIP3 bound to the GST-tagged PH domain, which is negatively correlated with the amount of PIP3 generated.

Sequence of PI3Kα (complex of human p110α and human p85α) (P42336 whole entry): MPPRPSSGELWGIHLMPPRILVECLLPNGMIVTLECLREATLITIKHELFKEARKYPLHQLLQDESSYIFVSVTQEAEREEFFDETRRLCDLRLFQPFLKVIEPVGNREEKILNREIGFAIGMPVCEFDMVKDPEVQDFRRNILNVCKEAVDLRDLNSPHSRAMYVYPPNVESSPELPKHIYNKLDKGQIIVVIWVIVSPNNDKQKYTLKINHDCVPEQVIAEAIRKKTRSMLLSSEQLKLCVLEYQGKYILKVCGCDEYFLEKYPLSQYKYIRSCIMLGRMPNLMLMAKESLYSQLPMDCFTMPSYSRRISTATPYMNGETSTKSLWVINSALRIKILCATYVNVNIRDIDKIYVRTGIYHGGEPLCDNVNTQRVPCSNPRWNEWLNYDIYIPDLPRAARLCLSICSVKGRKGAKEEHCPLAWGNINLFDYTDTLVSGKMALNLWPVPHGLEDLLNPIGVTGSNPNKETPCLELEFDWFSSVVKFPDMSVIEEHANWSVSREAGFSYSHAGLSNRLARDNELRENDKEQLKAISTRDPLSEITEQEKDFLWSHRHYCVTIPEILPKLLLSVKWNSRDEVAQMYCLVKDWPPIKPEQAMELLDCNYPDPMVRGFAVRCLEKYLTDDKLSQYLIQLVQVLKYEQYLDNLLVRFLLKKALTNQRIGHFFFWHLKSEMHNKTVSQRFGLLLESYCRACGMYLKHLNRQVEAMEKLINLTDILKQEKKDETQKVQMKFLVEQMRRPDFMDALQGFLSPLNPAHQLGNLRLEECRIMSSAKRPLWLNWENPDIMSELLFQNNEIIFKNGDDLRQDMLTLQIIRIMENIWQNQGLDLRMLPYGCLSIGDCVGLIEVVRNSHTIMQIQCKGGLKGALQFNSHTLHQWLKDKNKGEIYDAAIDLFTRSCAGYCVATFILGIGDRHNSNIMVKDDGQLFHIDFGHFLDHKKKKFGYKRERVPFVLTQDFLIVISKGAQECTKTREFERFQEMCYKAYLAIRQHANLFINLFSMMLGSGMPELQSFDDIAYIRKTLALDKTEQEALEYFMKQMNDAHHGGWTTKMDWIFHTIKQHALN
Sequence of PI3Kα (complex of human p110α and human p85α) (P27986 whole entry partner): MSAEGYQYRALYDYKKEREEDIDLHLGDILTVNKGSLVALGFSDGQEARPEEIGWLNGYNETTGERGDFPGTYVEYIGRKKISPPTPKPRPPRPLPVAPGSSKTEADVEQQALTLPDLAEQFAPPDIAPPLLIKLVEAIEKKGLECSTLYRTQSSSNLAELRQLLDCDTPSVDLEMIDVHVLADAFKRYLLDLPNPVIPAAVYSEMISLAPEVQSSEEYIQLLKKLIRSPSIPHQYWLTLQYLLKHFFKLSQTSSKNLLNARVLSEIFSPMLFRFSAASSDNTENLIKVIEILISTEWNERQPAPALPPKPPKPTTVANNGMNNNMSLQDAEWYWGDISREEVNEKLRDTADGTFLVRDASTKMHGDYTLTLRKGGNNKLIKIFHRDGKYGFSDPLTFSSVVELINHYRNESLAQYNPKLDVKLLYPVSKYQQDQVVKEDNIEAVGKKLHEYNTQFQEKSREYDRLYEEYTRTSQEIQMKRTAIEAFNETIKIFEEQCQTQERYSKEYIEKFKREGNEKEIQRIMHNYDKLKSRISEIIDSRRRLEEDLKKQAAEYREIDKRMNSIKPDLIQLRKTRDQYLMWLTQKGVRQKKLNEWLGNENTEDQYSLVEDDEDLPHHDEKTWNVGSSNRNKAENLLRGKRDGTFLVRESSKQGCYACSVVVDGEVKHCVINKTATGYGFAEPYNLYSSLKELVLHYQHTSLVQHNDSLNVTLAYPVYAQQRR
Sequence of PI3Kβ (complex of human p110β and human p85α) (P42338 whole entry, canonical isoform): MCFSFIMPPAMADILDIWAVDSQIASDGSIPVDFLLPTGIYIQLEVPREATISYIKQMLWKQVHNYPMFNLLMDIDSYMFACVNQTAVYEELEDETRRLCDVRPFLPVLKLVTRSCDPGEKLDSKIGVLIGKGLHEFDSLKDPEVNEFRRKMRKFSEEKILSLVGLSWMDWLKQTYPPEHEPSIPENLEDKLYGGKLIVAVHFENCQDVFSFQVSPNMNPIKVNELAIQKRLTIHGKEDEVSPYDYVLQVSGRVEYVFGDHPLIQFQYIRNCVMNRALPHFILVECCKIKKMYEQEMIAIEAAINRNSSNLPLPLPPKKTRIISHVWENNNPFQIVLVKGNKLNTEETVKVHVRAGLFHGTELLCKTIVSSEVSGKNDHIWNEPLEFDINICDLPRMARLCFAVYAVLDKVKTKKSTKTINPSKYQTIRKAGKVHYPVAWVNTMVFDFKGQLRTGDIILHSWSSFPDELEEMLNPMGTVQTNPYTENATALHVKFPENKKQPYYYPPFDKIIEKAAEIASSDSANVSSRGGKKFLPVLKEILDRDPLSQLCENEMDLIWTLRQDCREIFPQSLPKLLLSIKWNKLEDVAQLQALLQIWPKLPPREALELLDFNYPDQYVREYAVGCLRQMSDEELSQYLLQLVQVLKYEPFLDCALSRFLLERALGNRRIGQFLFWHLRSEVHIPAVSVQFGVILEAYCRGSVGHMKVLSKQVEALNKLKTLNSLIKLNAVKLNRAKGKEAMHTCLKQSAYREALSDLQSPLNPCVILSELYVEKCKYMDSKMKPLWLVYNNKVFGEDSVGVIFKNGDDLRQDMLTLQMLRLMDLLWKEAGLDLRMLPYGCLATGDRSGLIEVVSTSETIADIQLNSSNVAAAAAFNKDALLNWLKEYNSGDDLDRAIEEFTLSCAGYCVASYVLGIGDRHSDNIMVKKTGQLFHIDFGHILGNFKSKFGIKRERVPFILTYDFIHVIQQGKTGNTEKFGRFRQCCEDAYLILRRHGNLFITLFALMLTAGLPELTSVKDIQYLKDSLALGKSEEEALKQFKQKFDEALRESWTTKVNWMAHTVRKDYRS
Sequence of PI3Kβ (complex of human p110β and human p85α) (P27986 whole entry partner, canonical isoform): as the sequence (P27986 whole entry partner) above

Structure (SMILES): COc1c(OC[C@@H](O)CN[C@@H](C)c2ccccc2)ccc2c1N=C(NC(=O)c1cnc(N)nc1)N1CCN=C21 [Example 6, 2-Amino-N-(8-{[(2S)-2-hydroxy-3-{[(1S)-1-phenylethyl]amino}propyl]oxy}-7-methoxy-2,3-dihydroimidazo[1,2-c]quinazolin-5-yl)pyrimidine-5-carboxamide]
- IC50 [1]: < 0.01 µM
- IC50 [2]: < 0.01 µM
- PI3K beta average IC50/PI3K alpha average IC50 [2]: 7.01

Structure (SMILES): COc1c(OC[C@@H](O)CN[C@@H](C)c2ccccc2)ccc2c1N=C(NC(=O)c1cnc(N)nc1)N1CCN=C21 (relative stereo) [Example 5, rel-2-Amino-N-(8-{[(2R)-2-hydroxy-3-{[(1R)-1-phenylethyl]amino}propyl]oxy}-7-methoxy-2,3-dihydroimidazo[1,2-c]quinazolin-5-yl)pyrimidine-5-carboxamide]
- IC50 [1]: < 0.01 µM
- IC50 [2]: < 0.01 µM
- PI3K beta average IC50/PI3K alpha average IC50 [2]: 5.40

Structure (SMILES): COc1c(OC[C@H](O)CN[C@@H](C)c2ccccc2)ccc2c1N=C(NC(=O)c1cnc(N)nc1)N1CCN=C21 [Example 7, 2-Amino-N-(8-{[(2R)-2-hydroxy-3-{[(1S)-1-phenylethyl]amino}propyl]oxy}-7-methoxy-2,3-dihydroimidazo[1,2-c]quinazolin-5-yl)pyrimidine-5-carboxamide]
- IC50 [1]: < 0.01 µM
- IC50 [2]: < 0.01 µM
- PI3K beta average IC50/PI3K alpha average IC50 [2]: 3.44
